Data from article PMC12884754, “A GLUTAMATE CYSTEINE LIGASE Gene StGSH1 Regulated by StERF10 Enhanced Glutathione Accumulation and Adaptation to Low Phosphorus Stress in Potato” (Advanced Science, 2025).

Assays:
[1] = biological target: T1, StGSH1 (dimer) (Solanum tuberosum, UniProt M1AWB9); test: coupled pyruvate kinase/lactate dehydrogenase assay of ADP formation, A340; assay type: biochemical; details: standard reaction: pH 8.0, 100 mM Tris, 150 mM KCl, 20 mM MgCl2, 10 mM L-cysteine, 20 mM L-glutamate; homo-dimer; read-out: ATP
T1 construct: gene LOC102600891; pET32a, E. coli BL21(DE3); His tag removed by TEV; homodimer separated on Mono Q
T1 sequence (M1AWB9 74-523): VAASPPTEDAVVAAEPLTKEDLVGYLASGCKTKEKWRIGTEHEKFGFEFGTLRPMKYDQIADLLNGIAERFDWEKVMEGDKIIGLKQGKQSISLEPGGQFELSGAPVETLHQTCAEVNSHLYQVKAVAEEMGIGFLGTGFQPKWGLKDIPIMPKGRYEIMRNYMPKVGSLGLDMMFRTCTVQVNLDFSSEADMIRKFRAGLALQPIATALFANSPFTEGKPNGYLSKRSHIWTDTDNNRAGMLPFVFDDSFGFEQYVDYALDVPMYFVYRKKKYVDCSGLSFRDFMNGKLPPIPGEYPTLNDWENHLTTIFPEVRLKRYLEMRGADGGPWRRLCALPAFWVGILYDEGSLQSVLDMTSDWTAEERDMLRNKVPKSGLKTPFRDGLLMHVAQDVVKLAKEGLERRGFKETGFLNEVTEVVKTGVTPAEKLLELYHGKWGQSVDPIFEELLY
From the text: coupled pyruvate kinase/lactate dehydrogenase assay of ADP formation, A340 on StGSH1 (dimer)

[2] = biological target: T2, StGSH1 (monomer) (Solanum tuberosum, UniProt M1AWB9); test: as above; assay type: biochemical; details: standard reaction: pH 8.0, 100 mM Tris, 150 mM KCl, 20 mM MgCl2, 10 mM L-cysteine, 20 mM L-glutamate, read-out: ATP
T2 construct: gene LOC102600891; pET32a, E. coli BL21(DE3); His tag removed by TEV; monomer separated on Mono Q
T2 sequence (M1AWB9 74-523): T1 sequence (M1AWB9 74-523)
From the text: coupled pyruvate kinase/lactate dehydrogenase assay of ADP formation, A340 on StGSH1 (monomer)

Km [1]: 1000 ± 300 µM
Km [2]: 2410 ± 360 µM
Structure (SMILES): Nc1ncnc2c1ncn2[C@@H]1O[C@H](COP(=O)(O)OP(=O)(O)OP(=O)(O)O)[C@@H](O)[C@H]1O [ATP]
